Laboratory results reported in patent US9751875B2, “Quinine compounds, and optical isomers, preparation method and medical use thereof” (BEIJING FSWELCOME TECHNOLOGY DEVELOPMENT CO., LTD., priority 2013, dated 2017).
pIC50: −log10 of the molar value. Where two headings read alike, the source gives them in different places.

What was measured:
[1] = system: tracheal smooth muscle from guinea pigs (contraction induced by 3 × 10^−6 mol/L of CCh); assay: Antagonism in vitro of contraction of isolated tracheal smooth muscle from guinea pigs induced by carbachol (CCh); format: cell-based, guinea pig; conditions: for pIC50: read-out: Resistance to the contraction of smooth muscle from guinea pigs in vitro, IC50
Text: Preparation of the Isolated Tracheal Smooth Muscle Specimen from a Guinea Pig:
After a guinea pig was narcotized with urethane, the trachea between the throat and carina of the guinea pig was taken out rapidly, and placed in the Krebs-Henseleit (K-H) solution (composition (g/L): NaCl 6.92, KCl 0.35, CaCl2 0.28, KH2PO4 0.16, MgSO4.7H2O 0.4568, NaHCO3 2.1, Glucose 2.0) with a mixture gas of 5% CO2 and 95% O2 purged. After loose connective tissues and fats around the trachea were separated, the trachea was cut into trachea pieces having a width of about 3 mm and a length of 20 mm by a surgical scissor, with both ends of the trachea piece ligated with 4˜0 silk suture, and then placed into a thermostatic bath containing 5 ml of K—H solution (pH 7.4) at 37° C., with the mixture gas of 5% CO2 and 95% O2 continuously purged. A muscle tension transducer was connected to the upper end so as to apply 1.0 g of resting tension to the specimen, the change of the tension was recorded, the culture solution was replaced every 20 min, and the test was started after being balanced for 60 min.
Administration method: After the trachea piece was stabilized, 3×10^−6 mol/L of CCh was added into a bath, and after the contractile tension of the trachea piece reached a peak level, the example compounds, ipratropium bromide and tiotropium bromide were added into a Magnus bath by a cumulative dosing regimen with a dosage of 10^−9˜10^−5 mol, respectively, and the diastolic condition of the trachea piece was observed: if no response occurred (below the threshold concentration), a next dosage was continued to be added in sequence; if response occurred, after it reached a diastolic plateau, a next dosage was further added. The above operation was repeated until the contractile curve reached the minimum value. Finally, 10^−6 mol/L of isoprenaline was added so that the maximum relaxation would be reached and the curve was recorded.
Statistical approach: The result was expressed as mean ±standard deviation, and counted by Sigma Stat statistical package. The data was analyzed by using variance analysis, the comparison among means of a plurality of specimen was performed by using Student-Newman-Keuls(SNK) test; statistical significant level α=0.05 (bilateral).
Compounds shown in Table 5 were further prepared according to the present invention, and their IC50 […] of resistance to the contraction of tracheal smooth muscle from guinea pigs induced by a concentration of 3×10^−6 mol/L of CCh was determined.

[2] = system: tracheal smooth muscle from guinea pigs (contraction induced by 3 × 10^−6 mol/L of CCh); assay: as above; format: cell-based, guinea pig
[3] = read-out: IC50 (μM), antagonism in vitro against the contraction of the tracheal smooth muscle induced by CCh, 3 × 10^−6 mol/L of CCh, cumulative dosing
[4] = Cavia porcellus, read-out: IC50 (μM), antagonism in vitro against the contraction of the tracheal smooth muscle induced by CCh, 3 × 10^−6 mol/L of CCh, cumulative dosing
[5] = Cavia porcellus, 3 × 10^−6 mol/L of CCh, cumulative dosing, read-out: IC50 (μM), antagonism in vitro against the contraction of the tracheal smooth muscle induced by CCh
[6] = 3 × 10^−6 mol/L of CCh, cumulative dosing, read-out: IC50 (μM), antagonism in vitro against the contraction of the tracheal smooth muscle induced by CCh
[7] = Cavia porcellus, read-out: Resistance to the contraction of smooth muscle from guinea pigs in vitro, IC50 (μM), 3 × 10^−6 mol/L of CCh, Table 5
[8] = Cavia porcellus, 3 × 10^−6 mol/L of CCh, Table 5

| Compound | Onset time [2] [min] | Time for eliminating inhibition effect (min) [2] | IC50 [1, 7] [µM] | other results |
| --- | --- | --- | --- | --- |
| OC(CO[C@H]1C[N+]2(CCCOc3ccccc3)CCC1CC2)(c1ccccc1)C1CCCC1.[Br-] (stereo partly drawn) [Example 2, (2S,3S)-3-[(2-cyclopentyl-2-hydroxyl-2-phenyl)ethoxyl]-1-(3-phenoxypropyl)-1-azabicyclo[2,2,2]octane bromide] | 6.53 | more than 300 min | – | IC50 [1, 3]: 2.85 µM |
| OC(CO[C@@H]1C[N+]2(CCCOc3ccccc3)CCC1CC2)(c1ccccc1)C1CCCC1.[Br-] (stereo partly drawn) [Example 3, (2S,3R)-3-[(2-cyclopentyl-2-hydroxyl-2-phenyl)ethoxyl]-1-(3-phenoxypropyl)-1-azabicyclo[2,2,2]octane bromide] | 6.54 | more than 300 min | – | IC50 [1, 3]: 0.852 µM |
| OC(CO[C@H]1C[N+]2(CCCOc3ccccc3)CCC1CC2)(c1ccccc1)C1CCCCC1.[Br-] (stereo partly drawn) [Example 7, (2R,3S)-3-[(2-cyclohexyl-2-hydroxyl-2-phenyl)ethoxyl]-1-(3-phenoxypropyl)-1-azabicyclo[2,2,2]octane bromide] | 6.56 | more than 300 min | – | IC50 [1, 4]: 0.791 µM |
| O[C@](CO[C@H]1C[N+]2(CCCOc3ccccc3)CCC1CC2)(c1ccccc1)C1CCCCC1.[Br-] [Example 8, (2S,3S)-3-[(2-cyclohexyl-2-hydroxyl-2-phenyl)ethoxyl]-1-(3-phenoxypropyl)-1-azabicyclo[2,2,2]octane bromide] | 6.72 | more than 300 min | – | IC50 [1, 4]: 2.35 µM |
| O[C@](COC1C[N+]2(CCCOc3ccccc3)CCC1CC2)(c1ccccc1)C1CCCCC1.[Br-] (stereo partly drawn) [Example 9, (2S,3R)-3-[(2-cyclohexyl-2-hydroxyl-2-phenyl)ethoxyl]-1-(3-phenoxypropyl)-1-azabicyclo[2,2,2]octane bromide] | 6.13 | more than 300 min | – | IC50 [1, 4]: 0.758 µM |
| OC(CO[C@H]1C[N+]2(CCCOc3ccccc3)CCC1CC2)(c1ccccc1)C1CCCCC1 (stereo partly drawn) [Example 11, (2R,3S),(2S,3R) Configuration of 3-[(2-cyclohexyl-2-hydroxyl-2-phenyl)ethoxyl]-1-(3-phenoxypropyl)-1-azabicyclo[2,2,2]octane bromide] | 6.77 | more than 300 min | – | IC50 [1, 5]: 1.36 µM |
| OC(CO[C@H]1C[N+]2(CCCOc3ccccc3)CCC1CC2)(c1ccccc1)C1CCC1 (stereo partly drawn) [Example 13, (2R,3S)-3-[(2-cyclobutyl-2-hydroxyl-2-phenyl)ethoxyl]-1-(3-phenoxypropyl)-1-azabicyclo[2,2,2]octane bromide] | 7.25 | more than 300 min | – | IC50 [1, 5]: 0.917 µM |
| OC(CO[C@@H]1C[N+]2(CCCOc3ccccc3)CCC1CC2)(c1ccccc1)C1CCC1.[Br-] (stereo partly drawn) [Example 15, (2S,3R)-3-[(2-cyclobutyl-2-hydroxyl-2-phenyl)ethoxyl]-1-(3-phenoxypropyl)-1-azabicyclo[2,2,2]octane bromide] | 6.29 | more than 300 min | – | IC50 [1, 3]: 1.52 µM |
| OC(CO[C@H]1C[N+]2(CCCOc3ccccc3)CCC1CC2)(c1ccccc1)C1CCC1 (stereo partly drawn) [Example 17, (2R,3S),(2S,3R)-3-[(2-cyclobutyl-2-hydroxyl-2-phenyl)ethoxyl]-1-(3-phenoxypropyl)-1-azabicyclo[2,2,2]octane bromide] | 7.05 | more than 300 min | – | IC50 [1, 6]: 1.57 µM |
| OC(CO[C@H]1C[N+]2(CCCOc3ccccc3)CCC1CC2)(c1ccccc1)C1CCC1 (stereo partly drawn) [Example 18, (2R,3R),(2S,3S)-3-[(2-cyclobutyl-2-hydroxyl-2-phenyl)ethoxyl]-1-(3-phenoxypropyl)-1-azabicyclo[2,2,2]octane bromide] | 6.92 | more than 300 min | – | IC50 [1, 6]: 0.156 µM |
| OC(CO[C@H]1C[N+]2(CCCOc3ccccc3)CCC1CC2)(c1ccccc1)C1CC1 (stereo partly drawn) [Example 19, (2R,3S)-3-[(2-cyclopropyl-2-hydroxyl-2-phenyl)ethoxyl]-1-(3-phenoxypropyl)-1-azabicyclo[2,2,2]octane bromide] | 6.68 | more than 300 min | – | IC50 [1, 5]: 1.76 µM |
| COc1cccc2cccc(C(O)(COC3C[N+]4(CCCOc5ccccc5)CCC3CC4)C3CCCC3)c12 (stereo not drawn) [Example 34] | – | – | 0.654 | – |
| OC(CCOC1C[N+]2(CCCOc3ccccc3)CCC1CC2)(c1ccccc1)C1CCCC1 (stereo not drawn) [Example 35] | – | – | 0.102 | – |
| CC(=O)OC(COC1C[N+]2(CCCOc3ccccc3)CCC1CC2)(c1ccccc1)C1CCCC1 (stereo not drawn) [Example 36] | – | – | 0.068 | – |
| OC(COC1C[N+]2(CCCOc3ccccc3)CCC1CC2)(c1cccs1)C1CCCC1 (stereo not drawn) [Example 37] | – | – | 0.0783 | – |
| OC(CCCCCCCOC1C[N+]2(CCCOc3ccccc3)CCC1CC2)(c1ccsc1)C1CCCC1 (stereo not drawn) [Example 38] | – | – | 0.0317 | – |

| Compound | Onset time [2] [min] | Time for eliminating inhibition effect (min) [2] | IC50 [1, 7] [µM] | other results |
| --- | --- | --- | --- | --- |
| COC1C[N+]2(CCCOc3ccccc3)CCC1C(OCC(O)(c1ccccc1)C1CCCC1)C2 (stereo not drawn) [Example 39] | – | – | 0.045 | – |
| ClC(COC1C[N+]2(CCCOc3ccccc3)CCC1CC2)(c1ccccc1)C1CCCC1 (stereo not drawn) [Example 40] | – | – | 0.805 | – |
| Cc1ccc(OCCC[N+]23CCC(CC2)C(OCC(O)(c2ccccc2)C2CCCC2)C3)cc1 (stereo not drawn) [Example 41] | – | – | 0.0562 | – |
| COc1ccc(OCCC[N+]23CCC(CC2)C(OCC(O)(c2ccccc2)C2CCCC2)C3)cc1 (stereo not drawn) [Example 42] | – | – | 0.078 | – |
| CC(Oc1ccccc1)[N+]12CCC(CC1)C(OCC(O)(c1ccccc1)C1CCCC1)C2 (stereo not drawn) [Example 43] | – | – | 0.0615 | – |
| CC(C)(Oc1ccccc1)[N+]12CCC(CC1)C(OCC(O)(c1ccccc1)C1CCCC1)C2 (stereo not drawn) [Example 44] | – | – | 0.147 | – |
| OC(COC1C[N+]2(C3(COc4ccccc4)CCCC3)CCC1CC2)(c1ccccc1)C1CCCC1 (stereo not drawn) [Example 45] | – | – | 0.512 | – |
| OC(COC1C[N+]2(C3(COc4ccccc4)C=CC=C3)CCC1CC2)(c1ccccc1)C1CCCC1 (stereo not drawn) [Example 46] | – | – | 1.23 | – |
| CCCCC(O)(COC1C[N+]2(CCCOc3ccccc3)CCC1CC2)c1ccccc1 (stereo not drawn) [Example 47] | – | – | 0.506 | – |
| OC(COC1C[N+]2(CCCOc3ccccc3)CCC1CC2)(c1ccccc1)C1CCCC1 (stereo not drawn) [Example 48] | – | – | – | pIC50 ([1]; 3 × 10^−6 mol/L of CCh, Table 5): 5.93 |
| CC1CCCC1C(O)(COC1C[N+]2(CCCOc3ccccc3)CCC1CC2)c1ccccc1 (stereo not drawn) [Example 49] | – | – | 0.045 | – |
| CC1=CC=CC1C(O)(COC1C[N+]2(CCCOc3ccccc3)CCC1CC2)c1ccccc1 (stereo not drawn) [Example 50] | – | – | 0.413 | – |
| COC1C(OCC(O)(c2ccccc2)C2CCCC2)C2CC[N+]1(CCCOc1ccccc1)CC2 (stereo not drawn) [Example 52] | – | – | 0.513 | – |
| OC(COC1C[N+]2(CCCOc3ccccc3)CCC1CC2)(CC1CCCC1)c1ccccc1 (stereo not drawn) [Example 53] | – | – | 2.17 | – |
| OC(COC1C[N+]2(CCCOc3ccccc3)CCC1CC2)(c1ccccc1)C1CCCC1 (stereo not drawn) [Example 54] | – | – | – | pIC50 [1, 8]: 7.42 |
| OC(COC1C[N+]2(CCCOc3ccccc3)CCC1CC2)(c1ccccc1)C1CCCC1 (stereo not drawn) [Example 55] | – | – | – | pIC50 [1, 8]: 7.44 |
